Earlier results, collected in US20140051733A1, “FEBUXOSTAT PHARMACEUTICAL COMPOSITIONS” (Dr. Reddy's Laboratories Ltd., priority 2012, published 2014).
Where two headings read alike, the source gives them in different places.

Tests used:
[1] = Class 2 = low solubility, high permeability

For `Cc1nc(-c2ccc(OCC(C)C)c(C#N)c2)sc1C(=O)O` [Febuxostat, 2-[3-cyano-4-(2-methylpropoxy)phenyl]-4-methylthiazole-5-carboxylic acid], the solubility (in acetonitrile) is listed as “slightly soluble”, the solubility (in dimethylformamide) is listed as “freely soluble” and the solubility (in dimethylsulfoxide) is listed as “soluble”. The solubility (in ethanol) was “sparingly soluble”, the solubility (in methanol) was “slightly soluble” and the solubility (in water) was “practically insoluble”. The “Biopharmaceutics Classification System class” value [1] was “Class 2”.
